In test [1] the test system is CYP17. Put plainly: Progesterone response in ER+ breast cancer patients. The test is classed as in vivo, human. Particulars: vs. patients treated with abiraterone and prednisone (Abi/Pred), FIG. 20. As for the experimental part: Subjects that fulfill the Inclusion Criteria captured in Table 4 were administered seviteronel (600 mg for male subjects, 4×150 mg tablets; 450 mg for female subjects, 3×150 mg tablets) once daily until any of the criteria in Table 2 are met. Table 5 captures the clinical screening data and screening schedule for the various screens for each of the male subjects.
Subjects that fulfill the Inclusion Criteria captured in Table 4 were administered seviteronel (600 mg for male subjects, 4×150 mg tablets; 450 mg for female subjects, 3×150 mg tablets) and dexamethasone (0.5 mg) once daily until any of the criteria in Table 2 are met. Table 5 captures the clinical screening data and screening schedule for the various screens for each of the male subjects.
(§1) Blood samples were collected for evaluation of steroid hormone changes as a pharmacodynamics indicator of CYP17 inhibition over time e.g., DHEA, DHEA-S, androstenedione, testosterone, cortisol, corticosterone, progesterone, pregnenolone, estradiol, estrone and ACTH).

The test system of test [2] is CYP17. The test can be described thus: Endocrine profile (steroid hormone changes) in prostate cancer patients. The test is classed as in vivo, human. Particulars: seviteronel 600 mg once daily, FIG. 7. The protocol:
Males that fulfill the Inclusion Criteria captured in Table 1 were administered seviteronel (600 mg; 4×150 mg tablets) once daily until any of the criteria in Table 2 are met. Table 3 captures the clinical screening data and screening schedule for the various screens for each of the male subjects.
Males that fulfill the Inclusion Criteria captured in Table 1 were administered seviteronel (600 mg; 4×150 mg tablets) and dexamethasone (0.5 mg) once daily until any of the criteria in Table 2 are met. Table 3 captures the clinical screening data and screening schedule for the various screens for each of the male subjects.
as §1

Regarding `CC(C)C(O)(c1ccc2cc(OC(F)F)c(OC(F)F)cc2c1)c1c[nH]nn1` (centres unmarked) [SEVI, 1-(6,7-Bis(difluoromethoxy)naphthalen-2-yl)-2-methyl-1-(1H-1,2,3-triazol-4-yl)propan-1-ol], in the test on CYP17 [1], the increase in progesterone result is on record as “lack of clinically relevant increase”. In addition, in the test on CYP17 [2], the “"up-stream" steroids change” value is “limited increase”, the ACTH change result was “modest ACTH increase”, the androgen change result is “modest androgen decline” and the cortisol change entry was “modest cortisol decrease”.

The values are drawn from patent publication US11980626B2, “Compositions for treatment of breast and prostate cancer” (Kembi Therapeutics Pty Ltd, priority 2017, dated 2024).
